Data taken from ChEMBL document CHEMBL1201862, “PubChem BioAssay data set” (2004).
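Each compound was tested at five concentrations against cells in 96-well plates for 48 hours. Here, GI50 denotes the concentration required for 50% inhibition of growth.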 Active and inactive are the calls of the source. Rule as the data show it: active = GI50 up to about 1.1 µM and inactive = higher.

What was measured:
Experiment in all cases: NCI tumour cell line growth inhibition, 48 h
UO-31 = test system: UO-31
HCC 2998 = test system: HCC 2998
EKVX = test system: EKVX
DU-145 = test system: DU-145
COLO 205 = test system: COLO 205
HOP-92 = test system: HOP-92
CAKI-1 = test system: CAKI-1
NCI-H460 = test system: NCI-H460
A498 = test system: A498
SW-620 = test system: SW-620
MDA-N = test system: MDA-N
OVCAR-8 = test system: OVCAR-8
BT-549 = test system: BT-549
CCRF-CEM = test system: CCRF-CEM
SR = test system: SR
SK-OV-3 = test system: SK-OV-3
KM12 = test system: KM12
RPMI-8226 = test system: RPMI-8226
TK-10 = test system: TK-10
NCI-H522 = test system: NCI-H522
SNB-75 = test system: SNB-75
MCF7 = test system: MCF7
UACC-257 = test system: UACC-257
IGROV-1 = test system: IGROV-1
HOP-62 = test system: HOP-62
MDA-MB-435 = test system: MDA-MB-435
NCI/ADR-RES = test system: NCI/ADR-RES
SN12C = test system: SN12C
T47D = test system: T47D
SF-295 = test system: SF-295
PC-3 = test system: PC-3
HCT-116 = test system: HCT-116
SNB-19 = test system: SNB-19
RXF 393 = test system: RXF 393
MDA-MB-231 = test system: MDA-MB-231
MOLT-4 = test system: MOLT-4
SK-MEL-2 = test system: SK-MEL-2
OVCAR-5 = test system: OVCAR-5
U-251 = test system: U-251
786-0 = test system: 786-0
SF-268 = test system: SF-268
SK-MEL-28 = test system: SK-MEL-28
LOX IMVI = test system: LOX IMVI
A549 = test system: A549
SK-MEL-5 = test system: SK-MEL-5
M14 = test system: M14
SF-539 = test system: SF-539
HL-60 = test system: HL-60
HCT-15 = test system: HCT-15
K562 = test system: K562
HT-29 = test system: HT-29
OVCAR-3 = test system: OVCAR-3
ACHN = test system: ACHN
Hs-578T = test system: Hs-578T
Malme-3M = test system: Malme-3M
UACC-62 = test system: UACC-62
NCI-H23 = test system: NCI-H23
OVCAR-4 = test system: OVCAR-4
NCI-H226 = test system: NCI-H226

N#CC1=C(N)C(C#N)(C#N)C(c2ccc(F)cc2)C=C1C1CC1 (stereo unspecified)
GI50 (UO-31): 14 µM (inactive) | GI50 (HCC 2998): 12.8 µM (inactive) | GI50 (EKVX): 17.6 µM (inactive) | GI50 (DU-145): 12.9 µM (inactive) | GI50 (COLO 205): 12.4 µM (inactive) | GI50 (HOP-92): 11.9 µM (inactive) | GI50 (CAKI-1): 15 µM (inactive) | GI50 (NCI-H460): 5.2 µM (inactive) | GI50 (A498): 11.4 µM (inactive) | GI50 (SW-620): 6.95 µM (inactive) | GI50 (MDA-N): 2.27 µM (inactive) | GI50 (OVCAR-8): 9.93 µM (inactive) | GI50 (BT-549): 3.2 µM (inactive) | GI50 (CCRF-CEM): 4.71 µM (inactive) | GI50 (SR): 3.27 µM (inactive) | GI50 (SK-OV-3): 8.93 µM (inactive) | GI50 (KM12): 4.14 µM (inactive) | GI50 (RPMI-8226): 7.05 µM (inactive) | GI50 (TK-10): 15.5 µM (inactive) | GI50 (NCI-H522): 3.78 µM (inactive) | GI50 (SNB-75): 6 µM (inactive) | GI50 (MCF7): 5.09 µM (inactive) | GI50 (UACC-257): 9.12 µM (inactive) | GI50 (IGROV-1): 12.9 µM (inactive) | GI50 (HOP-62): 13.1 µM (inactive) | GI50 (MDA-MB-435): 3.22 µM (inactive) | GI50 (NCI/ADR-RES): 14.5 µM (inactive) | GI50 (SN12C): 2.72 µM (inactive) | GI50 (T47D): 12.1 µM (inactive) | GI50 (SF-295): 11.2 µM (inactive) | GI50 (PC-3): 10.2 µM (inactive) | GI50 (HCT-116): 4.01 µM (inactive) | GI50 (SNB-19): 13.2 µM (inactive) | GI50 (RXF 393): 5.96 µM (inactive) | GI50 (MDA-MB-231): 16.5 µM (inactive) | GI50 (MOLT-4): 4.81 µM (inactive) | GI50 (SK-MEL-2): 6.52 µM (inactive) | GI50 (OVCAR-5): 12.6 µM (inactive) | GI50 (U-251): 5.68 µM (inactive) | GI50 (786-0): 9.84 µM (inactive) | GI50 (SF-268): 4.81 µM (inactive) | GI50 (SK-MEL-28): 12.4 µM (inactive) | GI50 (LOX IMVI): 3.94 µM (inactive) | GI50 (A549): 13.8 µM (inactive) | GI50 (SK-MEL-5): 4.46 µM (inactive) | GI50 (M14): 4.21 µM (inactive) | GI50 (SF-539): 0.597 µM (active) | GI50 (HL-60): 4.13 µM (inactive) | GI50 (HCT-15): 9.77 µM | GI50 (K562): 6.03 µM (inactive) | GI50 (HT-29): 6.12 µM (inactive) | GI50 (OVCAR-3): 5.27 µM (inactive) | GI50 (ACHN): 12.9 µM (inactive) | GI50 (Hs-578T): 16.5 µM (inactive) | GI50 (Malme-3M): 11.5 µM (inactive) | GI50 (UACC-62): 8.24 µM (inactive) | GI50 (NCI-H23): 4.22 µM (inactive)

Oc1ccc(C(c2ccc(O)cc2)c2ccc(O)cc2)cc1
GI50 (UO-31): 18.4 µM (inactive) | GI50 (HCC 2998): 18 µM (inactive) | GI50 (EKVX): 15.3 µM (inactive) | GI50 (DU-145): 27.4 µM (inactive) | GI50 (COLO 205): 7.16 µM (inactive) | GI50 (HOP-92): 18.1 µM (inactive) | GI50 (CAKI-1): 16.1 µM (inactive) | GI50 (NCI-H460): 18.8 µM (inactive) | GI50 (A498): 15.8 µM (inactive) | GI50 (SW-620): 26.8 µM (inactive) | GI50 (MDA-N): 25.9 µM (inactive) | GI50 (OVCAR-8): 15.6 µM (inactive) | GI50 (BT-549): 20.5 µM (inactive) | GI50 (CCRF-CEM): 33.6 µM (inactive) | GI50 (SR): 37.1 µM (inactive) | GI50 (SK-OV-3): 14 µM (inactive) | GI50 (KM12): 16.7 µM (inactive) | GI50 (RPMI-8226): 27.2 µM (inactive) | GI50 (TK-10): 22.8 µM (inactive) | GI50 (NCI-H522): 17.1 µM (inactive) | GI50 (MCF7): 32.4 µM (inactive) | GI50 (UACC-257): 20.4 µM (inactive) | GI50 (IGROV-1): 14.3 µM (inactive) | GI50 (MDA-MB-435): 19.7 µM (inactive) | GI50 (NCI/ADR-RES): 18.9 µM (inactive) | GI50 (SN12C): 20.3 µM (inactive) | GI50 (OVCAR-4): 9.71 µM (inactive) | GI50 (T47D): 9.27 µM (inactive) | GI50 (SF-295): 41.4 µM (inactive) | GI50 (PC-3): 24 µM (inactive) | GI50 (HCT-116): 16.8 µM (inactive) | GI50 (SNB-19): 24.4 µM (inactive) | GI50 (RXF 393): 17.2 µM (inactive) | GI50 (MDA-MB-231): 16.3 µM (inactive) | GI50 (MOLT-4): 20.6 µM (inactive) | GI50 (SK-MEL-2): 19.8 µM (inactive) | GI50 (U-251): 23.2 µM (inactive) | GI50 (786-0): 17.6 µM (inactive) | GI50 (SF-268): 32.1 µM (inactive) | GI50 (SK-MEL-28): 19.3 µM (inactive) | GI50 (LOX IMVI): 19.3 µM (inactive) | GI50 (NCI-H226): 10.4 µM (inactive) | GI50 (A549): 35.9 µM (inactive) | GI50 (SK-MEL-5): 13.8 µM (inactive) | GI50 (SF-539): 20.8 µM (inactive) | GI50 (HL-60): 18.9 µM (inactive) | GI50 (HCT-15): 23.9 µM | GI50 (HT-29): 19 µM (inactive) | GI50 (ACHN): 27.3 µM (inactive) | GI50 (Hs-578T): 21.7 µM (inactive) | GI50 (Malme-3M): 16.5 µM (inactive) | GI50 (UACC-62): 14.5 µM (inactive) | GI50 (NCI-H23): 19.2 µM (inactive)

CCOC(=O)c1nc2ccccc2nc1NCc1ccc(OC)c(OC)c1
GI50 (UO-31): > 100 µM (inactive) | GI50 (HCC 2998): > 100 µM (inactive) | GI50 (EKVX): > 100 µM (inactive) | GI50 (DU-145): > 100 µM (inactive) | GI50 (COLO 205): > 100 µM (inactive) | GI50 (HOP-92): > 100 µM (inactive) | GI50 (CAKI-1): > 100 µM (inactive) | GI50 (NCI-H460): > 100 µM (inactive) | GI50 (A498): > 100 µM (inactive) | GI50 (SW-620): > 100 µM (inactive) | GI50 (MDA-N): > 100 µM (inactive) | GI50 (OVCAR-8): > 100 µM (inactive) | GI50 (BT-549): > 100 µM (inactive) | GI50 (CCRF-CEM): > 100 µM (inactive) | GI50 (SR): > 100 µM (inactive) | GI50 (SK-OV-3): > 100 µM (inactive) | GI50 (KM12): > 100 µM (inactive) | GI50 (RPMI-8226): > 100 µM (inactive) | GI50 (TK-10): 82.4 µM (inactive) | GI50 (NCI-H522): > 100 µM (inactive) | GI50 (SNB-75): > 100 µM (inactive) | GI50 (MCF7): > 100 µM (inactive) | GI50 (UACC-257): > 100 µM (inactive) | GI50 (IGROV-1): > 100 µM (inactive) | GI50 (HOP-62): > 100 µM (inactive) | GI50 (MDA-MB-435): > 100 µM (inactive) | GI50 (NCI/ADR-RES): > 100 µM (inactive) | GI50 (SN12C): > 100 µM (inactive) | GI50 (OVCAR-4): > 100 µM (inactive) | GI50 (T47D): > 100 µM (inactive) | GI50 (SF-295): > 100 µM (inactive) | GI50 (PC-3): > 100 µM (inactive) | GI50 (HCT-116): > 100 µM (inactive) | GI50 (RXF 393): 27.8 µM (inactive) | GI50 (MDA-MB-231): > 100 µM (inactive) | GI50 (MOLT-4): > 100 µM (inactive) | GI50 (OVCAR-5): > 100 µM (inactive) | GI50 (U-251): > 100 µM (inactive) | GI50 (786-0): > 100 µM (inactive) | GI50 (SF-268): > 100 µM (inactive) | GI50 (SK-MEL-28): > 100 µM (inactive) | GI50 (LOX IMVI): > 100 µM (inactive) | GI50 (NCI-H226): > 100 µM (inactive) | GI50 (A549): > 100 µM (inactive) | GI50 (SK-MEL-5): > 100 µM (inactive) | GI50 (SF-539): > 100 µM (inactive) | GI50 (HL-60): > 100 µM (inactive) | GI50 (HCT-15): > 100 µM | GI50 (K562): > 100 µM (inactive) | GI50 (HT-29): > 100 µM (inactive) | GI50 (OVCAR-3): > 100 µM (inactive) | GI50 (ACHN): > 100 µM (inactive) | GI50 (Hs-578T): 45.9 µM (inactive) | GI50 (Malme-3M): > 100 µM (inactive) | GI50 (UACC-62): > 100 µM (inactive) | GI50 (NCI-H23): > 100 µM (inactive)
